Each structure is given as a SMILES string. Structures can show the parent of a compound that is named as a salt. Where two headings read alike, the source gives them in different places.

This note sets out measurements from US20170166561A1, “QUINUCLIDINE COMPOUNDS FOR MODULATING ALPHA7-NICOTINIC ACETYLCHOLINE RECEPTOR ACTIVITY” (Alpharmagen, LLC, priority 2014, published 2017).

Data set [1] in a line: Metabolic stability assay in human liver microsomes (HLM; Protocols 1 and 2). The format is in vitro ADME. Particulars: 1 μM. As for the experimental part:
Example B4: Metabolic Stability Assays
Studies were carried out in human and rat liver microsomes (“HLM” and “RLM,” respectively). Human and rat liver microsomes were purchased from BD Gentest. DMSO stocks were prepared for the test compounds. Aliquots of the DMSO solutions were diluted to 0.5 mM by acetonitrile, then further diluted by liver microsomes/buffer to 1.5 μM. 30 μL of 1.5 μM solutions were mixed with 15 μL of 6 mM NADPH, which had been pre-warmed to 37° C., at a final test compound concentration of 1 μM. The plates were kept in a 37° C. water bath for the duration of the experiment. At each time point (0, 5, 15, 30, 45 minutes), 135 μL of acetonitrile was added into corresponding wells. After the final time point was sampled, the plates were shaken at a vibrator (IKA, MTS 2/4) for 10 min (600 rpm/min) and then centrifuged at 5594 g for 15 min (Thermo Multifuge×3R). Aliquots of the supernatant were removed, diluted 1:1 into distilled water, and analyzed by LC-MS/MS. The peak area response ratio to internal standard (PARR) of the compounds at 5, 15, 30, 45 minutes was compared to the PARR at time 0 to determine the percent of test compound remaining at each time point. Half-lives were calculated using Excel software, fitting to a single-phase exponential decay equation.
Studies were carried out in human and rat liver microsomes. Buffer solutions were prepared as follows: Buffer A: 1.0 L of 0.1 M monobasic Potassium Phosphate buffer containing 1.0 mM EDTA; Buffer B: 1.0 L of 0.1 M Dibasic Potassium Phosphate buffer containing 1.0 mM EDTA; Buffer C: 0.1 M Potassium Phosphate buffer, 1.0 mM EDTA, pH 7.4 by titrating 700 mL of buffer B with buffer A while monitoring with a pH meter.
Reference compound (Ketanserin) and test compound spiking solutions were prepared as follows: 500 μM spiking solution: add 10 μL of 10 mM DMSO stock solution into 190 μL ACN; 1.5 μM spiking solution in microsomes (0.75 mg/mL): add 1.5 μL of 500 μM spiking solution and 18.75 μL of 20 mg/mL liver microsomes into 479.75 μL of Buffer C.
NADPH stock solution (6 mM) was prepared by dissolving NADPH into buffer C.
Assay procedure: 30 μL of 1.5 μM spiking solution containing 0.75 mg/mL microsomes solution was dispensed to the wells designated for 45 min, 30 min, 15 min, 5 min, and 0 min. The plate was pre-incubated at 37° C. for 10 minutes. 15 μL of NADPH stock solution (6 mM) was added to the wells designated as Time 45, and the timer was started. At 30 min, 15 min, and 5 min, 15 μL NADPH stock solution (6 mM) was added to the wells, respectively. At the end of incubation (0 min), 135 tit of ACN containing IS was added to all the wells. Then 15 tit of NADPH stock solution (6 mM) was added to the wells designated as Time 0. After quenching, the reaction mixtures were centrifuged at 3220 g for 10 min. Following centrifugation, 50 μL of the supernatant was transferred from each well into a 96-well sample plate containing 50 μL of ultra-pure water (Millipore) for LC/MS analysis. The peak area response (PARR) ratio to internal standard of the compounds at 5, 15, 30, and 45 minutes was compared to the PARR at time 0 to determine the percent of test compound remaining at each time point. Half-lives were calculated using Excel software, fitting to a single-phase exponential decay equation.

The nature of data set [2]: Human plasma stability (Protocols 1 and 2). It counts as in vitro ADME. Particulars: human. As for the experimental part:
Example B6: Human Plasma Stability
Studies were carried out in human plasma. All plasma was obtained from Bioreclamation and collected on sodium heparin. Plasma was adjusted to pH 7.4. A DMSO stock was first prepared for the test compound. An aliquot of the DMSO solution was dosed into 1 mL of plasma, which had been pre-warmed to 37° C., at a final test compound concentration of 1 μM. The vials were kept in a benchtop Thermomixer® for the duration of the experiment. Aliquots (100 μL) were taken at each time point (0, 15, 30, 60, and 120 minutes) and added to 96-well plates which had been pre-filled with 300 μL of acetonitrile. Samples were stored at 4° C. until the end of the experiment. After the final time point was sampled, the plate was mixed and then centrifuged at 3,000 rpm for 10 minutes. Aliquots of the supernatant were removed, diluted 1:1 into distilled water, and analyzed by LC-MS/MS. The peak area response ratio to internal standard (PARR) of the compound at 15, 30, 60 and 120 minutes was compared to the PARR at time 0 to determine the percent of test compound remaining at each time point. Half-lives were calculated using GraphPad software, fitting to a single-phase exponential decay equation.
Studies were carried out in plasma. Plasma was prepared under approval of IRB and IACUC on sodium heparin. The pH of plasma was monitored and used within the range of pH 7.4 to pH 8.0. DMSO stocks were prepared for the test compounds. Aliquots of the DMSO solutions were diluted to 0.05 mM by 0.05 mM Sodium phosphate buffer with 0.5% BSA. Then 10 μL of 0.05 mM solutions were dosed into 90 μL of plasma in duplicates (n=2), which had been pre-warmed to 37° C., at a final test compound concentration of 5 μM. The plates were kept in a 37° C. water bath for the duration of the experiment. At each time point (0, 5, 15, 30, 45, 60, and 120 minutes), 400 μL of acetonitrile was added into corresponding wells. After the final time point was sampled, the plates were shaken at the vibrator (IKA, MTS 2/4) for 10 min (600 rpm/min) and then centrifuged at 5594 g for 15 min (Thermo Multifuge×3R). Aliquots of the supernatant were removed, diluted 1:1 into distilled water, and analyzed by LC-MS/MS. The peak area response ratio to internal standard (PARR) of the compounds at 5, 15, 30, 45, 60, and 120 minutes was compared to the PARR at time 0 to determine the percent of test compound remaining at each time point. Half-lives were calculated using Excel software, fitting to a single-phase exponential decay equation.

Data set [3] has as its target T1, Human α7 NAChR (Homo sapiens, UniProt P36544).
T1 construct: TriLink (mRNA); Ecocyte Bioscience (oocytes); host or cells: Xenopus laevis oocytes injected with mRNA
Nature of the data set: Electrophysiology screen at 1 μM in Xenopus laevis oocytes. The format is cell-based. Particulars: test compound 1 μM; Imax = maximal current produced by 3 mM ACh; holding voltage −70 mV. As for the experimental part:
Example B2: Electrophysiology Screen at 1 μM in Xenopus Laevis Oocytes
Human α7 NAChR mRNA Preparation:
Human α7 NAChR plasmid was prepared by GeneWiz from accession NM_000746.5. Human α7 NAChR mRNA was prepared by TriLink at a concentration near 1 μg/μL. The human α7 NAChR mRNA was diluted in sterile water to a working concentration near 10 ng/μL.
Xenopus laevis Oocyte Injection and Maintenance:
Oocytes were obtained from Xenopus laevis frogs and treated with collagenase by Ecocyte Bioscience. Oocytes were injected with the working concentration of α7 NAChR mRNA at a volume of 50 nL for a total of approximately 0.5 ng of α7 NAChR mRNA. Oocytes were maintained in Barth's solution at a temperature of 16° C. The Barth's solution was replaced daily.
Electrophysiology Measurement:
Two-electrode voltage clamp recordings were made 3-14 days following mRNA injections at a holding voltage of −70 mV. […]
In all oocyte recordings, drug and wash solutions were applied using a custom-designed microcapillary “linear array” which allows rapid application of agonists. Currents were recorded on a PC-based computer (PClamp, Molecular Devices, Sunnyvale, Calif.). […]
Stocks of test compounds were prepared in DMSO. […] The test solution was perfused onto the oocyte until a peak current was recorded. […]

The target of data set [4] is rat brain nicotinic receptor (α7 NAChR, α-Bungarotoxin binding site) (Rattus norvegicus, UniProt Q05941).
Sequence of rat brain nicotinic receptor (α7 NAChR, α-Bungarotoxin binding site) (Q05941 23-502): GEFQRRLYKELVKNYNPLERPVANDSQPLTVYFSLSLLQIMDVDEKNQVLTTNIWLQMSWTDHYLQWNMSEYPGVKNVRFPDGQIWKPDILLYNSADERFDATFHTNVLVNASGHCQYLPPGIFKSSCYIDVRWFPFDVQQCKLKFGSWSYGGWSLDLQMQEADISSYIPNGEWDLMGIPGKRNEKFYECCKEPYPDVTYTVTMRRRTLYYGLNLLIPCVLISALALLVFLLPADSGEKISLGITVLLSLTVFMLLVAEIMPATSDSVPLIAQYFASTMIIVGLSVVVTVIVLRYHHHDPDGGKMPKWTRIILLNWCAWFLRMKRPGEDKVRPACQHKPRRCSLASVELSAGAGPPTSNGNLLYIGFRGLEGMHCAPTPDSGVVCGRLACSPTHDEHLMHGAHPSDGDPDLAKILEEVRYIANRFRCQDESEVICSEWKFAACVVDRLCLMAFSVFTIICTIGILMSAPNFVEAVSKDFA
Setting [5] is: Protocol 1, human liver microsomes, NADPH, 37° C.
Where [6] appears, read: Protocol 2, plasma pH 7.4 to 8.0, 5 μM, 37° C., read-out: T1/2.

T1 sequence (P36544 23-502): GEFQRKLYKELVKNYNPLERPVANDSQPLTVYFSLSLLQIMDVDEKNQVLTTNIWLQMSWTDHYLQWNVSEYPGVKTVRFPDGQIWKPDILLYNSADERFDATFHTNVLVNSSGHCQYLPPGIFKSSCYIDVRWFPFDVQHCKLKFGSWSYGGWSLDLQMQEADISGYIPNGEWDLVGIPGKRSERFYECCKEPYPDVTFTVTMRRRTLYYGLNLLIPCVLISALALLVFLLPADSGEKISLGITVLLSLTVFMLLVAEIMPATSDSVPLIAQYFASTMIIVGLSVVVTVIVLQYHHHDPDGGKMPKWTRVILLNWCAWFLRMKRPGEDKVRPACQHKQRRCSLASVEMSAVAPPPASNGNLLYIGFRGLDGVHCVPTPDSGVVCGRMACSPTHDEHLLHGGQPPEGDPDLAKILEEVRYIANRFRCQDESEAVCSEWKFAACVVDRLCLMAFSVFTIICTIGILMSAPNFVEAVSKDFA

In data set [1] (human, microsomes), `COc1cc2c(C(=O)OCC34CCN(CC3)CC4)c[nH]c2cc1Cl` [Compound 69, quinuclidin-4-ylmethyl 6-chloro 5-methoxy-1H-indole-3-carboxylate, hydrochloride] returned an HLM of 8.8 mL/min/kg. The same compound came in with a half-life at 5 μM in data set [2] (plasma, pH 7.4) of 6.93 h.
For `Cc1ccc2[nH]cc(C(=O)OCC34CCN(CC3)CC4)c2c1C` [Compound 70, quinuclidin-4-ylmethyl 4,5-dimethyl-1H-indole-3-carboxylate], in that order: 0 mL/min/kg and 4.16 h.
In data set [1] (setting [5]), `COc1cc2[nH]cc(C(=O)OCC34CCN(CC3)CC4)c2cc1OC` [Compound 87, quinuclidin-4-ylmethyl 5,6-dimethoxy-1H-indole-3-carboxylate] came in with an HLM of 0.5 mL/min/kg. The half-life at 5 μM in data set [2] (setting [6]) worked out at 2.41 h.
In the case of `Cl.O=C(OCC12CCN(CC1)CC2)c1c[nH]c2cccc(C(F)(F)F)c12` [Compound 80, Quinuclidin-4-ylmethyl 4-(trifluoromethyl)-1H-indole-3-carboxylate hydrochloride], in data set [3], the I/Imax was 0.032. In data set [2] (setting [6]), the half-life at 5 μM is 10.9 h.
`Cc1cc2[nH]cc(C(=O)OCC34CCN(CC3)CC4)c2cc1Cl.Cl` [Compound 66, quinuclidin-4-ylmethyl 5-chloro-6-methyl-1H-indole-3-carboxylate hydrochloride] showed an HLM in data set [1] (setting [5]) of 0 mL/min/kg. Besides, the half-life at 5 μM in data set [2] (setting [6]) turned out to be 5.26 h.
`Cc1cc(F)cc2[nH]cc(C(=O)OCC34CCN(CC3)CC4)c12` [Compound 44, quinuclidin-4-ylmethyl 6-fluoro-4-methyl-1H-indole-3-carboxylate] showed an HLM in data set [1] (human, microsomes) of 3.5 mL/min/kg. Moreover, the T1/2 entry in data set [2] (plasma, pH 7.4) is “∞”.
Compound `Cc1cc(O)cc2[nH]cc(C(=O)OCC34CCN(CC3)CC4)c12` [Compound 83, quinuclidin-4-ylmethyl 6-hydroxy-4-methyl-1H-indole-3-carboxylate] had an HLM in data set [1] (human, microsomes) of 2.7 mL/min/kg. The half-life at 5 μM in data set [2] (plasma, pH 7.4) came to 6.48 h.
For orientation: IC50 means the point on the concentration scale where inhibition reaches its midpoint. Read a high IC50 as weaker potency in that assay. One may read the Ki as a dissociation constant, usually derived from enzyme kinetics or from competition with a known ligand. Low readings indicate a stronger hold on the target, high ones a looser hold on the target. Take `COc1cc2c(C(=O)OCC34CCN(CC3)CC4)c[nH]c2cc1C.Cl` [Compound 79, quinuclidin-4-ylmethyl 5-methoxy-6-methyl-1H-indole-3-carboxylate hydrochloride]: in data set [4], the concentration for half-maximal inhibition (IC50) came out at 159 nM and the Ki worked out at 137 nM. In addition, the I/Imax in data set [3] worked out at 0.259. In addition, the half-life at 5 μM in data set [2] (setting [6]) stood at 2.71 h.
Consider `Cl.O=C(OCC12CCN(CC1)CC2)c1c[nH]c2cc(O)c(F)cc12` [Compound 59, Quinuclidin-4-ylmethyl 5-fluoro-6-hydroxy-1H-indole-3-carboxylate hydrochloride], for which, in data set [1] (setting [5]), the HLM stood at 0 mL/min/kg. Further, the half-life at 5 μM in data set [2] (setting [6]) is 2.27 h.
Consider `COc1ccc2c(C(=O)OCC34CCN(CC3)CC4)c[nH]c2c1` [Compound 10, quinuclidin-4-ylmethyl 6-methoxy-1H-indole-3-carboxylate], for which, in data set [4], the 50% inhibitory concentration (IC50) stood at 321 nM and the Ki was determined as 279 nM.
The compound `Cc1cc2c(C(=O)OCC34CCN(CC3)CC4)c[nH]c2cc1Cl` [Compound 78, quinuclidin-4-ylmethyl 6-chloro-5-methyl-1H-indole-3-carboxylate] registered an HLM in data set [1] (human, microsomes) of 0 mL/min/kg. This compound also displayed a half-life at 5 μM in data set [2] (plasma, pH 7.4) of 4.77 h.
`COc1cc2c(C(=O)OCC34CCN(CC3)CC4)c[nH]c2cc1F` [Compound 57, quinuclidin-4-ylmethyl 6-fluoro-5-methoxy-1H-indole-3-carboxylate] gave an HLM in data set [1] (setting [5]) of 0 mL/min/kg. Moreover, the half-life at 5 μM in data set [2] (setting [6]) was 5.47 h.
